Assays:
Format in all cases: in vivo
[1] = system: AMBROSIA ARTEMISIIFOLIA, L.; assay: Preemergence herbicidal evaluation, AMBEL (Ragweed, Common)
In short: (§1)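 Rated 0-9 by visual comparison with control (stand, vigor, malformation, size, chlorosis, overall appearance) four to five weeks after preemergence soil spray. Dose equivalent to about 0.125 to 0.50 kg per hectare, applied in aqueous acetone to freshly seeded cups kept in greenhouse.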

CYPERUS DIFFORMIS = assay: Preemergence evaluation in the presence of transplanted rice under flooded paddy conditions (Example 43), CYPDI (Flatsedge, smallflower); set-up: key: visual rating on a 0-9 scale, compared with control; settings: applied three days after sowing, 25 to 30 days after treatment
Description: (§2) Results of herbicide evaluation are expressed on a rating scale (0-9). The scale is based upon a visual observation of plant stand, vigor, malformation, size, chlorosis and overall plant appearance as compared with a control.
(§3) In this example, Deluvian paddy soil (Toyokawa paddy soil) is placed in plastic pots, 100cm^2 x 9 cm in depth. Water is added to the level of the soil surface in the pot and the mixture is paddled 3 cm in depth.
(§4) Pots are then variously sown with monocotyledenous weed seeds and tubers at 0-2 cm in soil depth, as well as transplanted rice plants at the 2.5 leaf stage. The rice plants are transplanted at about 3 cm soil depth. Water is then added to all of the pots to 3 cm deep and kept at a depth of 3 cm for the duration of the test. Test compounds are applied in the manner described in Example 42 three days after transplanting the rice plants and sowing the weed seeds and tubers. The pots are then placed on greenhouse benches and cared for in the conventional manner. Tests are examined at 25 to 30 days after treatment and rated according to the rating system provided in Example 40. The compounds evaluated are reported by compound number given in Example 40.

ECHINOCHLOA CRUS-GALLI = assay: Preemergence evaluation in the presence of transplanted rice under flooded paddy conditions (Example 43), ECHCG (Barnyard Grass); set-up: key: visual rating on a 0-9 scale, compared with control; settings: applied three days after sowing, 25 to 30 days after treatment
Description: as §2, §3, §4

SAGITTARIA PYGMAEA = assay: Preemergence evaluation in the presence of transplanted rice under flooded paddy conditions (Example 43), SAGPY (Arrowhead (Pygmaea)); set-up: key: visual rating on a 0-9 scale, compared with control; settings: applied three days after sowing, 25 to 30 days after treatment
Description: as §2, §3, §4

[2] = system: ORYZA SATIVA, L. CV. KOSHIHIKARI; assay: Post-transplant rice evaluation under flooded paddy conditions (Example 43), ORYSAK (Rice, Koshihikari); set-up: key: visual rating on a 0-9 scale, compared with control; settings: applied three days after transplanting rice, 25 to 30 days after treatment
Description: as §2, §3, §4

[…] = Preemergence evaluation in the presence of transplanted rice under flooded paddy conditions (Example 43), MOOVA (Monochoria); settings: applied three days after sowing, 25 to 30 days after treatment
Description: as §2, §3, §4

SCIRPUS JUNCOIDES = assay: Preemergence evaluation in the presence of transplanted rice under flooded paddy conditions (Example 43), SCPJU (Bulrush, Japanese); set-up: key: visual rating on a 0-9 scale, compared with control; settings: applied three days after sowing, 25 to 30 days after treatment
Description: as §2, §3, §4

[3] = system: ABUTILON THEOPHRASTI, MEDIC.; assay: Preemergence herbicidal evaluation, ABUTH (Velvetleaf); settings: four to five weeks after treatment
In short: as §1

| Structure (SMILES) | Herbicidal effect rating, CYPDI (CYPERUS DIFFORMIS; 0.032 kg/ha) | Herbicidal effect rating, CYPDI (CYPERUS DIFFORMIS; 0.063 kg/ha) | Herbicidal effect rating, CYPDI (CYPERUS DIFFORMIS; 0.125 kg/ha) | Herbicidal effect rating, CYPDI (CYPERUS DIFFORMIS; 0.250 kg/ha) | Herbicidal effect rating, ECHCG (ECHINOCHLOA CRUS-GALLI; 0.032 kg/ha) | Herbicidal effect rating, ECHCG (ECHINOCHLOA CRUS-GALLI; 0.063 kg/ha) | Herbicidal effect rating, ECHCG (ECHINOCHLOA CRUS-GALLI; 0.125 kg/ha) | Herbicidal effect rating, ECHCG (ECHINOCHLOA CRUS-GALLI; 0.250 kg/ha) | Herbicidal effect rating, SAGPY (SAGITTARIA PYGMAEA; 0.032 kg/ha) | Herbicidal effect rating, SAGPY (SAGITTARIA PYGMAEA; 0.063 kg/ha) | Herbicidal effect rating, SAGPY (SAGITTARIA PYGMAEA; 0.125 kg/ha) | Herbicidal effect rating, SAGPY (SAGITTARIA PYGMAEA; 0.250 kg/ha) | Herbicidal effect rating, ORYSAK ([2]; 0.032 kg/ha) | Herbicidal effect rating, ORYSAK ([2]; 0.063 kg/ha) | Herbicidal effect rating, ORYSAK ([2]; 0.125 kg/ha) | Herbicidal effect rating, ORYSAK ([2]; 0.250 kg/ha) | Herbicidal effect rating, MOOVA ([…]; 0.032 kg/ha) | Herbicidal effect rating, MOOVA ([…]; 0.063 kg/ha) | Herbicidal effect rating, MOOVA ([…]; 0.125 kg/ha) | Herbicidal effect rating, MOOVA ([…]; 0.250 kg/ha) | also measured |
| --- | --- | --- | --- | --- | --- | --- | --- | --- | --- | --- | --- | --- | --- | --- | --- | --- | --- | --- | --- | --- | --- |
| Cn1c(=O)[nH]c(=O)n(-c2cc(Oc3c(F)cc(C(F)(F)F)cc3Cl)ccc2F)c1=O [C, reference compound] |  |  |  |  |  |  |  |  |  |  |  |  |  |  |  |  |  |  |  |  | AMBEL ([1]; Rate 0.031 kg/ha): 0.0; AMBEL ([1]; Rate 0.063 kg/ha): 0.0; AMBEL ([1]; Rate 0.125 kg/ha): 0.0; AMBEL ([1]; Rate 0.250 kg/ha): 0.0 |
| COC(=O)Cn1c(=O)n(C)c(=O)n(-c2cc(Oc3c(F)cc(C(F)(F)F)cc3Cl)ccc2F)c1=O [Compound 4, Methyl 3-{5-[(2-chloro-α,α,α,6-tetrafluoro-p-tolyl)oxy]-2-fluorophenyl}tetrahydro-5-methyl-2,4,6-trioxo-s-triazine-1(2H)-acetate] | 9.0 | 9.0 | 9.0 | 9.0 | 9.0 | 9.0 | 9.0 | 9.0 | 0.0 | 2.0 | 6.0 | 9.0 | 1.0 | 4.0 | 7.0 | 9.0 | 9.0 | 9.0 | 9.0 | 9.0 | Herbicidal effect rating, SCPJU (SCIRPUS JUNCOIDES; 0.032 kg/ha): 7.0; Herbicidal effect rating, SCPJU (SCIRPUS JUNCOIDES; 0.063 kg/ha): 9.0; Herbicidal effect rating, SCPJU (SCIRPUS JUNCOIDES; 0.125 kg/ha): 9.0; Herbicidal effect rating, SCPJU (SCIRPUS JUNCOIDES; 0.250 kg/ha): 9.0 |
| COC(=O)Cn1c(=O)[nH]c(=O)n(-c2cc(Oc3ccc(C(F)(F)F)cc3Cl)ccc2[N+](=O)[O-])c1=O [Compound 8, Methyl 3-{5-[(2-chloro-α,α,α-trifluoro-p-tolyl)oxy]-2-nitrophenyl}tetrahydro-2,4,6-trioxo-s-triazine-1(2H)-acetate] | 7.0 | 9.0 | 9.0 | 9.0 | 8.0 | 8.0 | 9.0 | 9.0 | 1.0 | 3.0 | 6.0 | 8.0 | 2.0 | 3.0 | 2.0 | 6.0 | 7.0 | 9.0 | 9.0 | 9.0 | ABUTH rating ([3]; Rate 0.125 kg/ha): 9.0; ABUTH rating ([3]; Rate 0.250 kg/ha): 9.0; ABUTH rating ([3]; Rate 0.500 kg/ha): 9.0; Herbicidal effect rating, SCPJU (SCIRPUS JUNCOIDES; 0.032 kg/ha): 1.0; Herbicidal effect rating, SCPJU (SCIRPUS JUNCOIDES; 0.063 kg/ha): 5.0; Herbicidal effect rating, SCPJU (SCIRPUS JUNCOIDES; 0.125 kg/ha): 7.0; Herbicidal effect rating, SCPJU (SCIRPUS JUNCOIDES; 0.250 kg/ha): 8.0 |
